Data: US12729186B2, “Prodrugs for sustained releasing therapeutic agents and uses thereof” (LIANGJIANG MEDICINE CO., LTD., priority 2020, dated 2026)

Assay: Drug release assay (hydrolysis rate test in pH 7.4 / pH 2.0 buffer, HPLC)
Type: physicochemical
Conditions: for Hydrolysis constant Kh pH 2.0 / Hydrolysis constant Kh pH 7.4: Kh=-ln[100%-Release rate (%)]/t; for Release rate (%) pH 2.0 (6 h): pH 2.0 buffer solution; for Release rate (%) pH 2.0 (6 h) / Release rate (%) pH 7.4 (0.5 h) / Release rate (%) pH 7.4 (6 h): 37° C., 200 rpm, residual content relative to 0 h by HPLC; for Release rate (%) pH 7.4 (0.5 h) / Release rate (%) pH 7.4 (6 h): pH 7.4 buffer solution
Experimental: Preparation of pH2.0 Buffer Solution
Preparation of pH7.4 Buffer Solution
Method of Hydrolysis Rate Test
The compounds were dissolved in pH7.4/pH2.0 buffer solution, placed in a constant temperature shaker at 37° C. and 200 rpm, and sampled at 0 h, 0.5 h and 6 h respectively. The residual contents of the compounds relative to 0 h were tested at each time point.
The release rates (%) were calculated using the following equation: Release rate (%)=[A(0h)−A(xh)]/A(0h)×100%, (x=0, 0.5, 6), A(xh) is the peak area of compounds tested by HPLC at the indicated time point.
The hydrolysis constants (Kh) were calculated using the following equation: Hydrolysis constant Kh=−ln[100%−Release rate (%)]/t Results

Row | SMILES | Hydrolysis constant Kh pH 2.0 | Release rate (%) pH 2.0 (6 h) [%] | Hydrolysis constant Kh pH 7.4 | Release rate (%) pH 7.4 (0.5 h) [%] | Release rate (%) pH 7.4 (6 h) [%]
1 | CCCCN(CCCC)c1ccc(N2CCC(CCOC(=O)OCn3cc(F)c(=O)[nH]c3=O)CC2)cc1 [Example 1, 2-(1-(4-(Dibutylamino)phenyl)piperidin-4-yl)ethyl ((5-fluoro-2,4-dioxo-3,4-dihydropyrimidin-1(2H)-yl)methyl) carbonate] | <0.001 | 0 | 0.111 | 5.4 | 64
2 | CCCN(CCC)c1ccc(-c2ccc(OC(=O)OCn3cc(F)c(=O)[nH]c3=O)cc2)cc1 [Example 2, 4′-(Dipropylamino)-[1,1′-biphenyl]-4-yl ((5-fluoro-2,4-dioxo-3,4-dihydropyrimidin-1(2H)-yl)methyl) carbonate] | 0.080 | 38 | 2.375 | 69.5 | 89
3 | CCCCCN(CCCCC)c1ccc(OC(=O)OCn2cc(F)c(=O)[nH]c2=O)cc1 [Example 3, 4-(Dipentylamino)phenyl ((5-fluoro-2,4-dioxo-3,4-dihydropyrimidin-1(2H)-yl)methyl) carbonate] | 0.153 | 60 | 1.873 | 60.8 | 100
4 | Cc1cc(C)cc(N2CCC(c3ccc(OC(=O)OCn4cc(F)c(=O)[nH]c4=O)cc3)CC2)c1 [Example 4, 4-(1-(3,5-Dimethylphenyl)piperidin-4-yl)phenyl ((5-fluoro-2,4-dioxo-3,4-dihydropyrimidin-1(2H)-yl)methyl) carbonate] | 0.039 | 21 | 3.509 | 82.7 | 98
5 | CCCc1ccc(N2CCc3cc(OC(=O)OCn4cc(F)c(=O)[nH]c4=O)ccc3C2)cc1 [Example 5, (5-Fluoro-2,4-dioxo-3,4-dihydropyrimidin-1(2H)-yl)methyl (2-(4-propylphenyl)-1,2,3,4-tetrahydroisoquinolin-6-yl) carbonate] | 0.137 | 56 | 5.838 | 94.6 | 95
6 | CCCc1ccc(N2CCC(Cc3ccc(OC(=O)OCn4cc(F)c(=O)[nH]c4=O)cc3)CC2)cc1 [Example 6, (5-Fluoro-2,4-dioxo-3,4-dihydropyrimidin-1(2H)-yl)methyl (4-((1-(4-propylphenyl)piperidin-4-yl)methyl)phenyl) carbonate] | 0.033 | 18 | 3.521 | 82.8 | 75
7 | O=C(OCn1cc(F)c(=O)[nH]c1=O)Oc1ccc(C2CCN(CC(c3ccccc3)c3ccccc3)CC2)cc1 [Example 7, 4-(1-(2,2-Diphenylethyl)piperidin-4-yl)phenyl ((5-fluoro-2,4-dioxo-3,4-dihydropyrimidin-1(2H)-yl)methyl) carbonate] | 0.029 | 16 | 9.924 | 99.3 | 92
8 | O=C(OCn1cc(F)c(=O)[nH]c1=O)Oc1ccc(C2CCN(CC34CC5CC(CC(C5)C3)C4)CC2)cc1 [Example 8, 4-(1-(Adamantan-1-ylmethyl)piperidin-4-yl)phenyl ((5-fluoro-2,4-dioxo-3,4-dihydropyrimidin-1(2H)-yl)methyl) carbonate] | 0.041 | 22 | 11.043 | 99.6 | 99
9 | O=C(OCn1cc(F)c(=O)[nH]c1=O)Oc1ccc(CC2CCN(C(c3ccccc3)c3ccccc3)CC2)cc1 [Example 9, 4-((1-Benzhydrylpiperidin-4-yl)methyl)phenyl ((5-fluoro-2,4-dioxo-3,4-dihydropyrimidin-1(2H)-yl)methyl) carbonate] | 0.027 | 15 | 4.508 | 89.5 | 90
10 | CCCCC1CCN(c2ccc(CCOC(=O)n3cc(F)c(=O)[nH]c3=O)cc2)CC1 [Example 10, 4-(4-Butylpiperidin-1-yl)phenethyl 5-fluoro-2,4-dioxo-3,4-dihydropyrimidine-1(2H)-carboxylate] | 0.077 | 37 | 0.256 | 12.0 | 54
11 | CCCCN(CCCC)c1ccc(N2CCC(CCOC(=O)n3cc(F)c(=O)[nH]c3=O)CC2)cc1 [Example 11, 2-(1-(4-(Dibutylamino)phenyl)piperidin-4-yl)ethyl 5-fluoro-2,4-dioxo-3,4-dihydropyrimidine-1(2H)-carboxylate] | 0.067 | 33 | 0.117 | 5.7 | 83
12 | CC[C@@]1(O)C(=O)OCc2c1cc1n(c2=O)Cc2cc3cc(OC(=O)CC4CCN(CC(c5ccccc5)c5ccccc5)CC4)ccc3nc2-1 [Example 13, (S)-4-ethyl-4-hydroxy-3,14-dioxo-3,4,12,14-tetrahydro-1H-pyrano[3′,4′:6,7]indolizino[1,2-b]quinolin-9-yl 2-(1-(2,2-diphenylethyl)piperidin-4-yl)acetate] | <0.001 | 0.5 | 0.042 | 2.1 | 23.3
13 | CCc1c2c(nc3ccc(OC(=O)[C@@H]4CCCN4C(c4ccccc4)c4ccccc4)cc13)-c1cc3c(c(=O)n1C2)COC(=O)[C@]3(O)CC [Example 14, (S)-4,11-diethyl-4-hydroxy-3,14-dioxo-3,4,12,14-tetrahydro-1H-pyrano[3′,4′:6,7]indolizino[1,2-b]quinolin-9-yl benzhydrylprolinate] | 0.015 | 8.4 | 3.876 | 85.6 | 84.4
14 | CCc1c2c(nc3ccc(OC(=O)NCC4CCCN4C(c4ccccc4)c4ccccc4)cc13)-c1cc3c(c(=O)n1C2)COC(=O)[C@]3(O)CC (stereo partly drawn) [Example 16, (S)-4,11-diethyl-4-hydroxy-3,14-dioxo-3,4,12,14-tetrahydro-1H-pyrano[3′,4′:6,7]indolizino[1,2-b]quinolin-9-yl ((1-benzhydrylpyrrolidin-2-yl)methyl)carbamate] | <0.001 | 0.4 | 6.540 | 96.2 | 100
15 | CCCCN1CCC(c2ccc(OC(=O)Oc3ccc4nc5c(c(CC)c4c3)Cn3c-5cc4c(c3=O)COC(=O)[C@]4(O)CC)cc2)CC1 [Example 17, (S)-4-(1-butylpiperidin-4-yl)phenyl (4,11-diethyl-4-hydroxy-3,14-dioxo-3,4,12,14-tetrahydro-1H-pyrano[3′,4′:6,7]indolizino[1,2-b]quinolin-9-yl) carbonate] | 0.095 | 43.6 | 0.096 | 4.7 | 57.4
16 | CCCCCCCN1CCC(COC(=O)Oc2ccc3nc4c(c(CC)c3c2)Cn2c-4cc3c(c2=O)COC(=O)[C@]3(O)CC)CC1 [Example 18, (S)-4,11-diethyl-4-hydroxy-3,14-dioxo-3,4,12,14-tetrahydro-1H-pyrano[3′,4′:6,7]indolizino[1,2-b]quinolin-9-yl ((1-heptylpiperidin-4-yl)methyl) carbonate] | <0.001 | 0.3 | 0.184 | 8.8 | 11.9
17 | CCc1c2c(nc3ccc(OC(=O)CN(C4CCCCC4)C4CCCCC4)cc13)-c1cc3c(c(=O)n1C2)COC(=O)[C@]3(O)CC [Example 19, (S)-4,11-diethyl-4-hydroxy-3,14-dioxo-3,4,12,14-tetrahydro-1H-pyrano[3′,4′:6,7]indolizino[1,2-b]quinolin-9-yl dicyclohexylglycinate] | 0.041 | 21.8 | 0.865 | 35.1 | 100
18 | CC[C@@]1(O)C(=O)OCc2c1cc1n(c2=O)Cc2cc3cc(OC(=O)OCC4CCCN4C(c4ccccc4)c4ccccc4)ccc3nc2-1 (stereo partly drawn) [Example 20, (1-Benzhydrylpyrrolidin-2-yl)methyl ((S)-4-ethyl-4-hydroxy-3,14-dioxo-3,4,12,14-tetrahydro-1H-pyrano[3′,4′:6,7]indolizino[1,2-b]quinolin-9-yl) carbonate] | 0.078 | 37.2 | >20 | 100 | 100
